Results reported in ChEMBL document CHEMBL1159008, “Isolation, NMR studies, and biological activities of onopordopicrin from Centaurea sonchifolia” (J Nat Prod, 1992).
≈ marks a conversion by molar mass, not a printed value. Calls of active or inactive are those of the source. The calls are words filed in the database; no cut-off is given here.

Columns and labels:
[1] = tested on: Trichophyton mentagrophytes; experiment: Antifungal activity against Trichophyton mentagrophytes A-23 at 250 ug/dsik; assay type: functional, organism-based
[2] = tested on: Saccharomyces cerevisiae; experiment: Antifungal activity against Saccharomyces cerevisiae M25 at 250 ug/dsik; assay type: functional, organism-based
[3] = tested on: Candida albicans; experiment: Antifungal activity against Candida albicans A-26 at 250 ug/dsik; assay type: functional, organism-based
[4] = tested on: KB; experiment: Cytotoxicity against human KB cells; assay type: functional, cell-based
[5] = tested on: Staphylococcus aureus; experiment: Antibacterial activity against Staphylococcus aureus ATCC 25923 by disk diffusion assay; assay type: functional, organism-based

C=C(CO)C(=O)O[C@H]1C/C(C)=C\CC/C(CO)=C\[C@H]2OC(=O)C(=C)[C@H]12 [ONOPORDOPICRIN]
Activity [1]: inactive
Activity [2]: inactive
Activity [3]: inactive
EC50 [4]: 0.85 µg/mL (≈ 2.44 µM)
Activity [5]: Active
